The target of one experiment is BRD3(1,2) (Homo sapiens (Human), UniProt Q15059). Kind of experiment: AlphaScreen binding of compounds on BRD3 (D1+D2). The following applies: read-out: IC50 against BRD3(1,2). The text has this:
(§1) Homogeneous time-resolved fluorescence technology (HTRF) was used to determine the binding effect of compounds on BRD4 (D1+D2) and BRDT (D1) proteins, as well as AlphaScreen method was used to detect the binding effect of compounds on BRD2 (D1+D2) and BRD3 (D1+D2) proteins.
(§2) The compounds were screened in vitro, and each compound was serially diluted to 10 concentrations. Four proteins BRD4 (D1+D2), BRDT (D1), BRD2 (D1+D2) and BRD3 (D1+D2) were chosen to determine the IC50 values of compounds (see Table 1).
(§3) 4. Compound treatment: The test compound was dissolved in dimethyl sulfoxide (DMSO), and the storage concentration was 10 mM.
6. AlphaScreen Detection Procedures:
1) Preparing One-Fold Concentration of Detection Buffer
One-fold concentration of detection buffer was prepared (Improved HEPES buffer)
2) Gradient Dilution of Compounds
Echo automatic sampler was used to transfer the compound to the detection plate for gradient dilution, so that the final concentration of dimethyl sulfoxide was 0.1%.
3) Preparation of Protein Solution
The protein was dissolved in one-fold concentration of detection buffer.
4) Preparation of Substrate Solution
The peptide was dissolved in one-fold concentration of detection buffer to prepare the substrate solution.
5) 5 μL protein solution was transferred to the detection plate, and one-fold concentration of detection buffer (5 μL) was placed in the negative control wells.
6) The plate was incubated for 15 min at room temperature.
7) 5 μL substrate solution was added to each well to start the reaction.
8) The plate was incubated for additional 60 min at room temperature.
9) Preparation of acceptor solution and donor solution in one-fold concentration of assay buffer Acceptor solution (15 μL) and donor solution (15 μL) were respectively added, and then incubated at room temperature for 60 min and protected against exposure to light.
10) The endpoint was read in EnSpire and Alpha mode.
The experimental data were recorded in an Excel file and equation (1) was used to get the inhibition rate. Inh%=(Max−Signal)/(Max−Min)*100 Equation (1):
The obtained data were input into GraphPad software, and equation (2) was used to obtain the IC50 value. Y=Bottom+(Top−Bottom)/(1+10^((Log IC50−X)*Hill Slope)) Formula (2): […]
Wherein, Y axis was the inhibition rate, and the X axis was the compound concentration.
(In general: In Alpha technology, singlet oxygen from a donor bead excites a nearby acceptor bead.)

A further experiment concerns the target BRDT(D1) (Homo sapiens (Human), UniProt Q58F21). Kind of experiment: HTRF binding of compounds on BRDT (D1). The following applies: read-out: IC50 against BRDT(D1).
Text: as §1, §2, §3
5. Steps for Homogeneous Time-Resolved Fluorescence Detection:
1) According to the arrangement of the detection plate, all compounds were diluted in Echo plate.
The final dilution concentration of DMSO is 0.1%.
2) The compound or DMSO was transferred to a 384-well detection plate with the Echo automatic sampler.
3) Two-fold concentration of the mixture of protein and peptide was added to the detection plate.
4) Two-fold concentration of mixed detection solution was added to the test plate, and shaken for 30 s.
5) Incubating for 2 h at room temperature.
6) Fluorescence signal was read on Envision multi-function microplate reader (excitation light wavelength being 340 nm, and emission light wavelength being 615 nm and 665 nm).
The experimental data were recorded in an Excel file, and equation (1) was used to obtain the inhibition rate. Inh%=(Max−Signal)/(Max−Min)*100 Equation (1):
The obtained data was recorded in GraphPad software, and equation (2) was used to provide the IC50 values. Y=Bottom+(Top−Bottom)/(1+10^((Log IC50−X)*Hill Slope)) Equation (2): […]
Y axis was the inhibition rate, and X axis was the compound concentration.

In a further experiment the test system is Vcap cells. Kind of experiment: Inhibition of proliferation of Vcap cells (CCK-8). The class given is cell-based, human. The following applies: for IC50: Homo sapiens, 144 h, 6 days, CCK-8. How it is done:
• Vcap cell line (Cell Bank of Chinese Academy of Sciences, TCHu220) • FBS (Gibco, Cat. No. 10099-141) • 0.01M PBS (Biosharp, Cat. No. 162262) • DMEM HIGH Glucose (Hyclone, Cat. No. SH30243.01) • Penicillin-Streptomycin (Hyclone, Cat. No. SV30010) • Cell counting kit-8 (Signalway Antibody, Cat. No. CP002) • DMSO (Sigma, Cat. No. D5879) • Centrifuge Tube, 15 ml (Excell Bio, Cat. No. CS015-0001) • Cell Culture Dish, (Excell Bio, Cat. No. CS016-0128) • 96-well cell culture cluster (Corning, Cat. No. 3599) 2. Experimental Method
1) Vcap cells were subcultured in cell culture media, and the cells in good growth condition were seeded in a 96-well plate, 80 μL for each well, thus the number of cells per well was 10000, then the plate was cultured overnight in a 37° C., 5% CO2 cell incubator.
2) The drug was prepared with dimethyl sulfoxide (DMSO) as a 10 mM stock solution. Prior to use, the solution was diluted 3 times with DMSO, and then diluted with a 3-fold gradient to obtain 9 concentration gradients. Then, each concentration of the compound was further diluted 200 times with the culture media (to ensure that DMSO concentration in the culture system was 0.1%), 2 repeat wells for each concentration. The diluted solution of each compound (20 μL) was added to the cell culture well (with a final concentration of 10 μM, 3.3 μM, 1.1 μM . . . ), and shaken gently for mixing. In addition, three negative control wells containing only cells and three blank control wells containing only culture medium (20 μL DMSO diluted 200 times with culture medium being added to six wells) were included.
(1) After culturing for 6 days, 10 μL CCK-8 was added to each well and cultured for additional 2.5 h in a 37° C., 5% CO2 cell incubator.
(2) The absorbance (OD value) at 450 nm was measured with a multifunctional microplate reader.
(3) The data was analyzed by the Dose-response-inhibition equation in the software GraphPad Prism6, and the IC50 value was obtained.

In general, IC50 refers to the midpoint of a concentration-inhibition curve.

BRD3(1,2), sequence (Q15059 29-417): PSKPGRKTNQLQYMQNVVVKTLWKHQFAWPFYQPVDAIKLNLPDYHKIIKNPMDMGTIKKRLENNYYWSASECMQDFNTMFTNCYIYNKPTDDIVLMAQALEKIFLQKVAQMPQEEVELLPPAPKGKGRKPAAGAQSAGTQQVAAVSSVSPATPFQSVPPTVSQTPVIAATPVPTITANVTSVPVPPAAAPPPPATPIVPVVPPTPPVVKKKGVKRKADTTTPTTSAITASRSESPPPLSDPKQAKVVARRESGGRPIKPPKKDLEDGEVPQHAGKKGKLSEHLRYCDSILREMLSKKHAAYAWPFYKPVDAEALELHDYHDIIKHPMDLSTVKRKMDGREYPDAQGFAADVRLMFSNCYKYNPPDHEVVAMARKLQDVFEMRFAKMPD

In the case of `[2H]C([2H])([2H])n1cc(-c2cc(NS(=O)(=O)CC)ccc2N2CCC3(CC2)CC3)c2cc[nH]c2c1=O` [Compound 41], the values for the IC50 on BRD3(1,2) and at BRDT(D1) were 5.2 nM and 30 nM, respectively.
For `[2H]C([2H])([2H])n1cc(-c2cc(S(C)(=O)=O)c(F)cc2N2CCC3(CC2)CC3(F)F)c2cc[nH]c2c1=O` [Compound 219, 4-(2-(1,1-difluoro-6-aza-spiro[2.5]octan-6-yl)-4-fluoro-5-(methylsulfonyl)phenyl)-6-trideuteromethyl-1H-pyrrolo[2,3-c]pyridin-7(6H)-one], the concentration for half-maximal inhibition (IC50) on BRD3(1,2) is 6.7 nM; at BRDT(D1) it was 40 nM; in the experiment with Vcap cells, 17.6 nM. Further, the “inhibitory action on Vcap cells (in words)” value in the experiment with Vcap cells is listed as “effective inhibitory action”.
For the compound `[2H]C([2H])([2H])n1cc(-c2cc(S(C)(=O)=O)ccc2N2CCC3(CC2)CC3(F)F)c2cc[nH]c2c1=O` [Compound 184, 4-(2-(1,1-difluoro-6-aza-spiro[2.5]octan-6-yl)-5-(methylsulfonyl)phenyl)-6-trideuteromethyl-1H-pyrrolo[2,3-c]pyridin-7(6H)-one], the IC50 was 4.7 nM at BRD3(1,2), 19 nM at BRDT(D1) and 15 nM in the experiment on Vcap cells. Moreover, the “inhibitory action on Vcap cells (in words)” value in the experiment on Vcap cells was “effective inhibitory action”.

The values are drawn from patent US12162878B2 (HINOVA PHARMACEUTICALS INC., priority 2018, dated 2024).
